Data taken from PMC8428256 (Journal of medicinal chemistry, 2021).

Assays:
WIL-FL F98D [1] = conditions: Figure S5
WIL-FL F98D [2] = conditions: cited from earlier work
[3] = target: WIL-FL* (fluorescein-labeled WIL-FL LC dimer) (Homo sapiens, UniProt P01721, form not given/K101C); test: Proteolysis-coupled fluorescence polarization; format: biochemical; conditions: for potency (EC50) increase compared to 1: WIL-FL* EC50 ratio to compound 1
WIL-FL* T46L/F49Y = WIL-FL* T46L/F49Y (Homo sapiens, UniProt P01721, form not given/K101C/T66L); conditions: WIL-FL T46L/F49Y EC50
WIL-FL* T46L/F49Y, sequence (P01721 20-117 T66L/K101C, form open): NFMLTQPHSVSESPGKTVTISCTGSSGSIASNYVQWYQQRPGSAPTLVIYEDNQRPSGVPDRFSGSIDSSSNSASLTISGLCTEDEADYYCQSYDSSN

plasma proteins = format: in vitro ADME, human or mouse; conditions: 2 μM in plasma, dialysis 4 h, 37 °C
[4] = tested on: WIL-FL* (fluorescein-labeled WIL-FL LC dimer); test: Proteolysis-coupled fluorescence polarization; format: biochemical, human; conditions: assay not given; data in Tables S2-S6 of the supplement
WIL-FL* (fluorescein-labeled WIL-FL LC dimer), sequence (P01721 20-117 K101C, form open): as the sequence (P01721 20-117 T66L/K101C, form open) above, with L47T counted along it

WIL-FL* (fluorescein-labeled WIL-FL LC dimer) (Homo sapiens, UniProt P01721, form not given/K101C), sequence (P01721 20-117 K101C, form open): as the sequence (P01721 20-117 T66L/K101C, form open) above, with L47T counted along it

Cc1c(CCN2CC3(CCN(c4nccn5ccnc45)CC3)NC2=O)c(=O)oc2cc(O[C@H](C)c3ccccc3)ccc12 [(R)-83, (R)-8-(imidazo[1,2-a]pyrazin-8-yl)-3-(2-(4-methyl-2-oxo-7-(1-phenylethoxy)-2H-chromen-3-yl)ethyl)-1,3,8-triazaspiro[4.5]decan-2-one]
proteinase K resistance provided to WIL-FL F98D (WIL-FL F98D [1]): no appreciable proteinase K resistance

CCN(CC)c1ccc2c(C)cc(=O)oc2c1 [Compound 1]
binding to LC with F98D mutation (WIL-FL F98D [2]): obviates binding

CCN(CC)c1ccc2c(C)c(CCOC(=O)NCC3CCCNC3)c(=O)oc2c1 (centres unmarked) [Compound 18, 2-(7-(diethylamino)-4-methyl-2-oxo-2H-chromen-3-yl)ethyl (piperidin-3-ylmethyl)carbamate]
potency (EC50) increase compared to 1 [3]: ≤ 8 fold

CCN(CC)c1ccc2c(C)c(CCOC(=O)NCc3cccnc3)c(=O)oc2c1 [Compound 20, 2-(7-(diethylamino)-4-methyl-2-oxo-2H-chromen-3-yl)ethyl (pyridin-3-ylmethyl)carbamate]
potency (EC50) increase compared to 1 [3]: ≤ 8 fold

CCN(CC)c1ccc2c(C)c(CCOC(=O)NCCc3cccnc3)c(=O)oc2c1 [Compound 21, 2-(7-(diethylamino)-4-methyl-2-oxo-2H-chromen-3-yl)ethyl (2-(pyridin-3-yl)ethyl)carbamate]
potency (EC50) increase compared to 1 [3]: ≤ 8 fold

CCN(CC)c1ccc2c(C)c(CCOC(=O)N(C)CCc3cccnc3)c(=O)oc2c1 [Compound 22, 2-(7-(diethylamino)-4-methyl-2-oxo-2H-chromen-3-yl)ethyl methyl(2-(pyridin-3-yl)ethyl)carbamate]
reduced potency compared to the secondary carbamate 21 ([3]; WIL-FL* EC50): 70 fold

CCN(CC)c1ccc2c(C)c(CCOC(=O)NCc3cccc(NC(C)=O)c3)c(=O)oc2c1 [Compound 23, 2-(7-(diethylamino)-4-methyl-2-oxo-2H-chromen-3-yl)ethyl (3-acetamidobenzyl)carbamate]
potency (EC50) increase compared to 1 [3]: up to 22 fold

CCN(CC)c1ccc2c(C)c(CCOC(=O)NCc3cccc(C(N)=O)c3)c(=O)oc2c1 [Compound 25, 2-(7-(diethylamino)-4-methyl-2-oxo-2H-chromen-3-yl)ethyl (3-carbamoylbenzyl)carbamate]
potency (EC50) increase compared to 1 [3]: up to 22 fold

CCN(CC)c1ccc2c(C)c(CCOC(=O)NCc3cccc(-c4c[nH]cn4)c3)c(=O)oc2c1 [Compound 26, 2-(7-(diethylamino)-4-methyl-2-oxo-2H-chromen-3-yl)ethyl (3-(1H-imidazol-4-yl)benzyl)carbamate]
potency (EC50) increase compared to 1 [3]: 42 fold

CCN(CC)c1ccc2c(C)c(CCOC(=O)NCc3cccc(-c4ccc[nH]c4=O)c3)c(=O)oc2c1 [Compound 27, 2-(7-(diethylamino)-4-methyl-2-oxo-2H-chromen-3-yl)ethyl (3-(2-oxo-1,2-dihydropyridin-3-yl)benzyl)carbamate]
proteinase K resistance provided to WIL-FL F98D (WIL-FL F98D [1]): no appreciable proteinase K resistance

Cc1cc(=O)oc2cc(OCC(C)c3ccccc3)ccc12 (centres unmarked) [Compound 57, 4-methyl-7-(2-phenylpropoxy)-2H-chromen-2-one]
potency increase relative to 2 (WIL-FL* T46L/F49Y): 9 fold
plasma protein binding (in words) (plasma proteins): very high plasma protein binding

Cc1c(CN2CCOCC2)c(=O)oc2cc(OC(C)c3ccccc3)ccc12 (centres unmarked) [Compound 62, 4-methyl-3-(morpholinomethyl)-7-(1-phenylethoxy)-2H-chromen-2-one]
stabilizer potency (qualitative statement in text) [4]: slightly increased their potency

Cc1c(CN2CCOCC2)c(=O)oc2cc(OCC(C)c3ccccc3)ccc12 (centres unmarked) [Compound 63, 4-methyl-3-(morpholinomethyl)-7-(2-phenylpropoxy)-2H-chromen-2-one]
stabilizer potency (qualitative statement in text) [4]: slightly increased their potency
